# Values quoted from earlier work, collected in Sander's compilation of Henry's law constants (doi:10.1039/f19888401985).
# Experiment: Henry solubility constant Hcp at 298.15 K (mol/(m3 Pa))
# Conditions: reference: Abraham and Matteoli (1988); cited value
row,Henry solubility constant Hcp,SMILES
1,1.4e-05,[Ar] [argon]
2,1.3e-05,CCCC [butane]
3,3.8e-06,[He] [helium]
4,4.4e-06,CCCCCCC [heptane]
5,6.1e-06,CCCCCC [hexane]
6,2.5e-05,[Kr] [krypton]
7,4.4e-06,[Ne] [neon]
8,3.1e-06,CCCCCCCC [octane]
9,8e-06,CCCCC [pentane]
10,9.1e-05,[Rn] [radon]
11,4.3e-05,[Xe] [xenon]
